These results are taken from patent publication US20040121965A1, “Method of treating resistant tumors” (Wyeth Holdings Corporation, priority 2002, published 2004).

Each structure is given as a SMILES string. pIC50: −log10 of the molar value. Read-outs that look alike come from different tables or passages of the source. Where only a bound is given, the exact number is not on record here.

One experiment relates to KB-V1 (MDR1++). Kind of experiment: Cell survival assay (SRB), KB-V1 (MDR1++). The settings on record: for IC50: Homo sapiens, read-out: In vitro IC50 (nM) KBV1.
Experiment [1] concerns Human Melanoma Carcinoma Lox. To be noted: staged LOX xenograft; at MTD ('<': MTD not achieved); days 11-15. The protocol: 2.4. Growth of Tumors in Nude Mice. […] In these experiments, xenografts are implanted subcutaneously into the flanks of nude mice. […] Relative tumor mass compared to controls are assessed during the 21-day post-staging period.
Groups of 5 female nu/nu mice are injected with 1.5×10^6 KB-3-1 (A) or Lox cells (B). […] Relative tumor growth is determined during the experiment and % T/C calculated. Statistical analyses are Student's t-test of treated time points vs. vehicle (*, P<0.05; **, P<0.01)

For a further experiment, the system named is KB-3-1. The experiment is described as follows: Cell survival assay (SRB), KB-3-1. In kind it is cell-based, human. The settings on record: Homo sapiens; for pIC50: KB 3-1, 72 h, amount of drug needed to kill 50% of cells after three days continuous exposure, Table 11, read-out: IC50 in parental cell line KB-3-1; for IC50: KB 3-1, KB-3-1 cells (paclitaxel-sensitive parent), read-out: In vitro IC50 (nM) KB-3-1. An outline of the steps:
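Growth inhibition (IC50) is derived from SRB-measured protein content after a 3-day, duplicate exposure to serially diluted compound.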

The subject of another experiment is KB-8-5 (MDR1+). Kind of experiment: Cell survival assay (SRB), KB-8-5 (MDR1+). To be noted: for IC50: Homo sapiens, MDR1, read-out: In vitro IC50 (nM) KB85.

In the case of `CC/C(=C\[C@H](C(C)C)N(C)C(=O)[C@@H](NC(=O)[C@@H](NC)C(C)(C)c1ccccc1)C(C)(C)C)C(=O)O` [Example 78, N,β,β-Trimethyl-L-phenylalanyl-N^1-[(1S,2E)-3-carboxy-1-isopropyl-2-pentenyl]-N 1,3-dimethyl-L-valinamide], in the experiment on KB-V1 (MDR1++), the “Ratio KBV1/KB” value was 94.9 and the IC50 was determined as 512 nM. Further, the “Activity in nude mice animal model (% T/C @ MTD on days 11-15) LOX” value (“Activity … (% T/C @ MTD on days 11-15) LOX” below) in experiment [1] is reported as 17%. In addition, in the experiment on KB-3-1, the pIC50 was 8.27 and the IC50 worked out at 5.4 nM. For the same compound, in the experiment with KB-8-5 (MDR1+), the “Ratio KB85/KB” value came to 2.5 and the IC50 was 13.7 nM.
On to `CN[C@H](C(=O)N[C@H](C(=O)N(C)[C@H](/C=C(\C)C(=O)O)C(C)C)C(C)(C)C)C(C)(C)c1cccc(C(F)(F)F)c1` [Example 62, N,β,β-Trimethyl-3-(trifluoromethyl)-L-phenylalanyl-N^1-[(1S,2E)-3-carboxy-1-isopropyl-2-butenyl]-N^1,3-dimethyl-L-valinamide], for which, in the experiment on KB-V1 (MDR1++), the “Ratio KBV1/KB” value came to 66.0 and the IC50 was 42.7 nM. Further, in experiment [1], the “Activity … (% T/C @ MTD on days 11-15) LOX” value is 2%. Also, in the experiment with KB-3-1, the pIC50 was 9.15 and the IC50 worked out at 0.647 nM. Further, in the experiment with KB-8-5 (MDR1+), the “Ratio KB85/KB” value is given as 2.6 and the IC50 was 1.7 nM.
With `C/C(=C\[C@H](C(C)C)N(C)C(=O)[C@@H](NC(=O)[C@@H](N(C)C)C(C)(C)c1ccccc1)C(C)(C)C)C(=O)O` [Example 52, N,N,β, β-Tetramethyl-L-phenylalanyl-N^1-[(1S,2E)-3-carboxy-1-isopropyl-2-butenyl]-N^1,3-dimethyl-L-valinamide], in the experiment on KB-V1 (MDR1++), the “Ratio KBV1/KB” value was determined as 74.6 and the IC50 stood at 116 nM. Also, the “Activity … (% T/C @ MTD on days 11-15) LOX” value in experiment [1] was found to be 1%. In addition, in the experiment on KB-3-1, the pIC50 was 8.80 and the IC50 came out at 1.55 nM. In the experiment with KB-8-5 (MDR1+), the “Ratio KB85/KB” value stood at 2.4 and the IC50 is 3.7 nM.
As for `CN[C@H](C(=O)N[C@H](C(=O)N(C)[C@H](/C=C(\C)C(=O)O)C(C)C)C(C)(C)C)C(C)(C)c1cccc(Cl)c1` [Example 2, 3-Chloro-N,β,β-trimethyl-L-phenylalanyl-N^1-[(1S,2E)-3-carboxy-1-isopropyl-2-butenyl]-N^1,3-dimethyl-L-valinamide], in the experiment with KB-V1 (MDR1++), the “Ratio KBV1/KB” value amounted to 80.0 and the IC50 is 91 nM. Also, the “Activity … (% T/C @ MTD on days 11-15) LOX” value in experiment [1] is 9%. For the same compound, in the experiment on KB-3-1, the pIC50 was 8.96 and the IC50 turned out to be 1.14 nM. In the experiment with KB-8-5 (MDR1+), the “Ratio KB85/KB” value amounted to 2.8 and the IC50 turned out to be 3.2 nM.
`CCOC(=O)/C(C)=C/[C@H](C(C)C)N(C)C(=O)[C@@H](NC(=O)[C@@H](NC)C(C)(C)c1ccccc1)C(C)(C)C` [Example 133, Ethyl (E,4S)4-[((2S)-3,3-dimethyl-2-{[(2S)-3-methyl-2-(methylamino)-3-phenylbutanoyl]amino}butanoyl)(methyl)amino]-2,5-dimethyl-2-hexenoate]: in the experiment with KB-V1 (MDR1++), the “Ratio KBV1/KB” value is 54.5 and the IC50 was 1870 nM. Further, the “Activity … (% T/C @ MTD on days 11-15) LOX” value in experiment [1] was 1%. In the experiment on KB-3-1, the pIC50 was 7.47 and the concentration for half-maximal inhibition (IC50) came out at 34 nM. Also, in the experiment with KB-8-5 (MDR1+), the “Ratio KB85/KB” value is recorded as 14.5 and the IC50 came to 499 nM.
On to `CN[C@H](C(=O)N[C@H](C(=O)N(C)[C@H](/C=C(\C)C(=O)O)C(C)C)C(C)(C)C)C(C)(C)c1cccs1` [Example 20, N-Methyl-3-(2-thienyl)-L-valyl-N^1-[(1S,2E)-3-carboxy-1-isopropyl-2-butenyl]-N^1,3-dimethyl-L-valinamide], for which, in the experiment on KB-V1 (MDR1++), the “Ratio KBV1/KB” value is 80.9 and the IC50 came out at 162 nM. In addition, in experiment [1], the “Activity … (% T/C @ MTD on days 11-15) LOX” value is reported as 3%. In the experiment with KB-3-1, the pIC50 is 8.70 and the IC50 came to 2 nM. In the experiment with KB-8-5 (MDR1+), the “Ratio KB85/KB” value is recorded as 2.0 and the IC50 turned out to be 3.9 nM.
Turning to `CC[C@H](C)[C@H](NC(=O)[C@@H](NC)C(C)(C)c1ccccc1)C(=O)N(C)[C@H](/C=C(\C)C(=O)O)C(C)C.O=C(O)C(F)(F)F` [Example 106, N,β,β-trimethyl-L-phenylalanyl-N^1-[(1S,2E)-3-carboxy-1-isopropyl-2-butenyl]-N^1-methyl-L-isoleucinamide Trifluoroacetic Acid], in the experiment on KB-V1 (MDR1++), the “Ratio KBV1/KB” value worked out at 42.3 and the IC50 was found to be 660 nM. Moreover, the “Activity … (% T/C @ MTD on days 11-15) LOX” value in experiment [1] is recorded as <47^4%. Further, in the experiment on KB-3-1, the pIC50 is 7.81 and the half-inhibitory concentration (IC50) was determined as 16 nM. Besides, in the experiment with KB-8-5 (MDR1+), the “Ratio KB85/KB” value is listed as 2.2 and the IC50 is 34 nM.
Take `CN[C@H](C(=O)N[C@H](C(=O)N(C)[C@H](/C=C(\C)C(=O)O)C(C)C)C(C)(C)SC)C(C)(C)c1ccccc1` [Example 80, (E,4S)-2,5-dimethyl-4-{methyl[(2R)-3-methyl-2-{[(2S)-3-methyl-2-(methylamino)-3-phenylbutanoyl]amino}-3-(methylsulfanyl)butanoyl]amino}-2-hexenoic Acid]: in the experiment on KB-V1 (MDR1++), the “Ratio KBV1/KB” value is 112.2 and the IC50 was determined as 303 nM. Moreover, the “Activity … (% T/C @ MTD on days 11-15) LOX” value in experiment [1] is recorded as 8^4%. For the same compound, in the experiment with KB-3-1, the pIC50 is 8.57 and the 50% inhibitory concentration (IC50) worked out at 2.7 nM. In addition, in the experiment with KB-8-5 (MDR1+), the “Ratio KB85/KB” value is 2.6 and the IC50 came to 7.1 nM.
Regarding `CN[C@H](C(=O)N[C@H](C(=O)N(C)[C@H](/C=C(\C)C(=O)O)C(C)C)C(C)C)C(C)(C)c1ccccc1.O=C(O)C(F)(F)F` [Example 105, N,β,β-trimethyl-L-phenylalanyl-N^1-[(1S,2E)-3-carboxy-1-isopropyl-2-butenyl]-N^1-methyl-L-valinamide Trifluoroacetic Acid], in the experiment with KB-V1 (MDR1++), the “Ratio KBV1/KB” value is 54.9 and the IC50 turned out to be 288 nM. Further, the “Activity … (% T/C @ MTD on days 11-15) LOX” value in experiment [1] is reported as 8%. Further, in the experiment with KB-3-1, the pIC50 is 8.28 and the IC50 came to 5.25 nM. In addition, in the experiment on KB-8-5 (MDR1+), the “Ratio KB85/KB” value turned out to be 2.1 and the IC50 was 11.1 nM.
As to `CN[C@H](C(=O)N[C@H](C(=O)N(C)[C@H](C[C@@H](C)C(=O)O)C(C)C)C(C)(C)C)C(C)(C)c1ccccc1` [Example 124, N,β,β-trimethyl-L-phenylalanyl-N^1-[(1R,3R)-3-carboxy-1-isopropylbutyl]-N^1,3-dimethyl-L-valinamide], in the experiment with KB-V1 (MDR1++), the “Ratio KBV1/KB” value came to 153.0 and the IC50 amounted to 1320 nM. The “Activity … (% T/C @ MTD on days 11-15) LOX” value in experiment [1] is on record as 62%. For the same compound, in the experiment with KB-3-1, the pIC50 is 8.07 and the IC50 amounted to 8.6 nM. Moreover, in the experiment with KB-8-5 (MDR1+), the “Ratio KB85/KB” value amounted to 2.2 and the IC50 came to 18.9 nM.
As to `CN[C@H](C(=O)N[C@H](C(=O)N(C)[C@H](/C=C(\C)C(=O)O)C(C)C)C(C)(C)C)C(C)(C)c1ccc(C)c(C)c1` [Example 14, N,β,β,3,4-Pentamethyl-L-phenylalanyl-N^1-[(1S,2E)-3-carboxy-1-isopropyl-2-butenyl]-N^1,3-dimethyl-L-valinamide], in the experiment with KB-V1 (MDR1++), the “Ratio KBV1/KB” value is given as 95.6 and the half-inhibitory concentration (IC50) stood at 39 nM. In addition, the “Activity … (% T/C @ MTD on days 11-15) LOX” value in experiment [1] came out at 2%. In addition, in the experiment with KB-3-1, the pIC50 was 9.40 and the IC50 was determined as 0.408 nM. Further, in the experiment on KB-8-5 (MDR1+), the “Ratio KB85/KB” value amounted to 2.8 and the IC50 was 1.13 nM.
Regarding `CN[C@H](C(=O)N[C@H](C(=O)N(C)[C@H](/C=C(\C)C(=O)O)C(C)C)C(C)(C)C)C(C)(C)C1CCCCC1` [Example 70, 3-Cyclohexyl-N-methyl-L-valyl-N-1-[(1S,2E)-3-carboxy-1-isopropyl-2-butenyl]-N-1,3-dimethyl-L-valinamide], in the experiment on KB-V1 (MDR1++), the “Ratio KBV1/KB” value is 40.9 and the IC50 was 151 nM. Besides, the “Activity … (% T/C @ MTD on days 11-15) LOX” value in experiment [1] amounted to 4%. In the experiment on KB-3-1, the pIC50 is 8.43 and the IC50 was found to be 3.7 nM. Further, in the experiment with KB-8-5 (MDR1+), the “Ratio KB85/KB” value was found to be 1.5 and the IC50 amounted to 5.6 nM.
